Source: US20240270762A1, “PENICILLIN-BINDING PROTEIN INHIBITORS” (priority 2021, published 2024)
Converted amounts (≈) assume the structure as drawn.

Tests used:
[1] = target: T1, A. baumannii PBP1a (Acinetobacter baumannii, UniProt A0ABX6CK30); assay: Bocillin-FL competition binding via gel filtration, A. baumannii PBP1a; settings: competition binding assay using Bocillin-FL via gel filtration; read-out: A. baumannii PBP1a Potency
T1 sequence (A0ABX6CK30 1-851): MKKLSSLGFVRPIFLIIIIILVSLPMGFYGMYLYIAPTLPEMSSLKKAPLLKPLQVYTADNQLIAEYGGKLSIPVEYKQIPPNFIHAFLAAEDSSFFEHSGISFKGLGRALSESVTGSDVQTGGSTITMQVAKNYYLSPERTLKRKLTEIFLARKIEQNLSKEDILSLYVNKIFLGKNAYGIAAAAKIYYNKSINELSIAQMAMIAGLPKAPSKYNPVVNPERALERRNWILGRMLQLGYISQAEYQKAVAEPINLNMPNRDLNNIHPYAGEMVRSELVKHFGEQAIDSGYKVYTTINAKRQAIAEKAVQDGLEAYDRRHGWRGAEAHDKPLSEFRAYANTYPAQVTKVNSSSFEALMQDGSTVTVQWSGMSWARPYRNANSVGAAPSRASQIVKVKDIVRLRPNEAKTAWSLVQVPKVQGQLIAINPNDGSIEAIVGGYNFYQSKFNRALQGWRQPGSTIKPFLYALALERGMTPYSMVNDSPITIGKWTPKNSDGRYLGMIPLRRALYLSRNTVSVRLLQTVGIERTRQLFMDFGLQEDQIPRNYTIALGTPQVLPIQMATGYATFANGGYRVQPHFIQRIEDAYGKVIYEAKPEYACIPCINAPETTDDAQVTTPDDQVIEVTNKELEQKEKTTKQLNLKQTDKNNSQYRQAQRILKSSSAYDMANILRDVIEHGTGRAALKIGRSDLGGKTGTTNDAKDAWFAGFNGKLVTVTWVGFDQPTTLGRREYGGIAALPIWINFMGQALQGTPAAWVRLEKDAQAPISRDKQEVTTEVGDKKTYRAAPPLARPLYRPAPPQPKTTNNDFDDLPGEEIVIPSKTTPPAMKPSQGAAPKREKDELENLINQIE
How it was run: (§1)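 Enzyme was pre-incubated with rising inhibitor concentrations, then Bocillin-FL was added and incubated 15 minutes more. Bound probe was separated by gel filtration and fluorescence read. EC50 came from fitting fraction of PBP labelled versus inhibitor concentration to a Hill equation with ymin, ymax and n.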

[2] = target: A. baumannii PBP2 (Acinetobacter baumannii, UniProt D0C8Z9); assay: Bocillin-FL competition binding via gel filtration, A. baumannii PBP2
Chain of A. baumannii PBP2 (D0C8Z9 whole entry): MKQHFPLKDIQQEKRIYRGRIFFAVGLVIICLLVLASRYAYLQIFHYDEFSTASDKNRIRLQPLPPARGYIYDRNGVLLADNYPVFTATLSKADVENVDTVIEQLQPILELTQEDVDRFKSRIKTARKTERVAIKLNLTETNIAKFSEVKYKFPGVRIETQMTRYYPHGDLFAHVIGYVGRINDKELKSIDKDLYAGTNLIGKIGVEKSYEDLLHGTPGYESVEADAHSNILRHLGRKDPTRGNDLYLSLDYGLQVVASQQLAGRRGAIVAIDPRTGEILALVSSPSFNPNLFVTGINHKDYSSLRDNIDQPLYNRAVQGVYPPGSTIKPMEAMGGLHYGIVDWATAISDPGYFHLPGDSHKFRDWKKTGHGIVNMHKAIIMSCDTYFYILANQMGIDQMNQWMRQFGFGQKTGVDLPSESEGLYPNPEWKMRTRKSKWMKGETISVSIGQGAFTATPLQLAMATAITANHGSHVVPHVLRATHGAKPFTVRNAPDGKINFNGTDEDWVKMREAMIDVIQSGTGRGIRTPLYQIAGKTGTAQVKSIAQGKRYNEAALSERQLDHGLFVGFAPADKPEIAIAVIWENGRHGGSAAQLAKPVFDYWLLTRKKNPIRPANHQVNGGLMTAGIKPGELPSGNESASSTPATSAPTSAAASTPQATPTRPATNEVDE
How it was run: as §1

[3] = test system: P. aeruginosa ATCC 27853; assay: microbe, parasite or virus in culture; type: cell-based; settings: Pseudomonas aeruginosa, ATCC27853, read-out: Minimum inhibitory concentration, P. aeruginosa ATCC 27853
[4] = test system: A. baumannii ATCC 17978; assay: microbe, parasite or virus in culture; type: cell-based; settings: Acinetobacter baumannii, ATCC17978, read-out: MIC, A. baumannii ATCC 17978
[5] = test system: A. baumannii ATCC 19606; assay: microbe, parasite or virus in culture; type: cell-based; settings: Acinetobacter baumannii, ATCC19606, read-out: MIC, A. baumannii ATCC 19606
[6] = test system: P. aeruginosa CDC-0054; assay: microbe, parasite or virus in culture; type: cell-based; settings: Pseudomonas aeruginosa, CDC0054, read-out: Minimum inhibitory concentration, P. aeruginosa CDC-0054
[7] = test system: P. aeruginosa CDC-0090; assay: microbe, parasite or virus in culture; type: cell-based; settings: Pseudomonas aeruginosa, CDC0090, read-out: Minimum inhibitory concentration, P. aeruginosa CDC-0090
[8] = test system: A. baumannii CDC-0045; assay: microbe, parasite or virus in culture; type: cell-based; settings: Acinetobacter baumannii, CDC0045, read-out: MIC, A. baumannii CDC-0045
[9] = test system: B. thailandensis ATCC 700388; assay: microbe, parasite or virus in culture; type: cell-based; settings: Burkholderia thailandensis, ATCC700388, read-out: Minimum inhibitory concentration (MIC), B. thailandensis ATCC 700388
[10] = test system: B. humptydooensis ATCC BAA-2767; assay: microbe, parasite or virus in culture; type: cell-based; settings: Burkholderia humptydooensis, ATCCBAA2767, read-out: Minimum inhibitory concentration (MIC), B. humptydooensis ATCC BAA-2767

Compound | EC50 [1] [µM] | EC50 [2] [µM] | MIC [3] [µg/mL] | MIC [4] [µg/mL] | MIC [5] [µg/mL] | MIC [6] [µg/mL] | MIC [7] [µg/mL] | MIC [8] [µg/mL] | MIC [9] [µg/mL] | MIC [10] [µg/mL]
O=C(O)c1c(F)ccc2c1OB(O)[C@@H](NC(=O)[C@H](NC(=O)N1CCN(Cc3ccc(O)c(O)c3Cl)C(=O)C1=O)c1ccc(P(=O)(O)O)cc1)C2 (single isomer, unassigned) [Example 160] | < 10 | < 10 | < 1 | < 1 | < 1 | < 1 | < 1 | < 1 | < 1 | < 1
O=C(O)c1c(F)ccc2c1OB(O)[C@@H](NC(=O)[C@H](NC(=O)N1CCN(Cc3ccc(O)c(O)c3Cl)C(=O)C1=O)c1cccc(P(=O)(O)O)c1)C2 (single isomer, unassigned) [Example 163] | < 10 | 10 to 50 | < 1 | < 1 | < 1 | < 1 | 2 to 4 (≈ 2.72 to 5.44 µM) | < 1 | < 1 | < 1
O=C(NCCS(=O)(=O)N1CCN(C(=O)N[C@@H](C(=O)N[C@H]2Cc3ccc(F)c(C(=O)O)c3OB2O)c2ccc(P(=O)(O)O)cc2)C1=O)c1ccc(O)c(O)c1Cl (single isomer, unassigned) [Example 168] | 50 to 250 | < 10 | 8 to 16 (≈ 9.66 to 19.3 µM) | < 1 | < 1 | 32 to 64 (≈ 38.7 to 77.3 µM) | 32 to 64 (≈ 38.7 to 77.3 µM) | 2 to 4 (≈ 2.42 to 4.83 µM) | < 1 | < 1
O=C(NCCCS(=O)(=O)N1CCN(C(=O)N[C@H](C(=O)N[C@H]2Cc3ccc(F)c(C(=O)O)c3OB2O)c2ccc(P(=O)(O)O)cc2)C1=O)c1ccc(O)c(O)c1Cl (single isomer, unassigned) [Example 169] |  | 50 to 250 | > 128 | > 128 | > 128 | > 128 | > 128 | > 128 | > 128 | > 128
O=C(O)c1c(F)ccc2c1OB(O)[C@@H](NC(=O)[C@H](NC(=O)N1CCN(C3CCN(C(=O)Nc4ccc(O)cc4)CC3)C(=O)C1=O)c1cc(F)c(O)c(O)c1Cl)C2 (single isomer, unassigned) [Example 426] | 10 to 50 | 10 to 50 | 2 to 4 (≈ 2.5 to 4.99 µM) | < 1 | < 1 | < 1 | < 1 | 2 to 4 (≈ 2.5 to 4.99 µM) | < 1 | < 1
O=C(O)c1c(F)ccc2c1OB(O)[C@@H](NC(=O)[C@H](NC(=O)N1CCN(C3CCN(C(=O)c4cccc(O)c4)CC3)C1=O)c1cc(F)c(O)c(O)c1Cl)C2 (single isomer, unassigned) [Example 430] | < 10 | < 10 | < 1 | < 1 | < 1 | < 1 | < 1 | 8 to 16 (≈ 10.6 to 21.1 µM) | < 1 | < 1
O=C(O)c1c(F)ccc2c1OB(O)[C@@H](NC(=O)[C@H](NC(=O)N1CCN(C3CCN(C(=O)c4cccc(O)c4F)CC3)C1=O)c1cc(F)c(O)c(O)c1Cl)C2 (single isomer, unassigned) [Example 431] | < 10 | < 10 | < 1 | < 1 | < 1 | < 1 | < 1 | < 1 | < 1 | < 1
O=C(O)c1c(F)ccc2c1OB(O)[C@@H](NC(=O)[C@H](NC(=O)N1CCN(C3CCN(C(=O)c4cccc(O)c4Cl)CC3)C1=O)c1cc(F)c(O)c(O)c1Cl)C2 (single isomer, unassigned) [Example 432] | < 10 | < 10 | < 1 | < 1 | < 1 | < 1 | < 1 | < 1 | < 1 | < 1
O=C(O)c1c(F)ccc2c1OB(O)[C@@H](NC(=O)[C@H](NC(=O)N1CCN(C3CCN(C(=O)c4cc(O)ccc4F)CC3)C1=O)c1cc(F)c(O)c(O)c1Cl)C2 (single isomer, unassigned) [Example 433] | < 10 | < 10 | < 1 | < 1 | < 1 | < 1 | < 1 | < 1 | < 1 | < 1
O=C(O)c1c(F)ccc2c1OB(O)[C@@H](NC(=O)[C@H](NC(=O)N1CCN(C3CCN(C(=O)c4cc(O)ccc4Cl)CC3)C1=O)c1cc(F)c(O)c(O)c1Cl)C2 (single isomer, unassigned) [Example 434] | < 10 | < 10 | < 1 | < 1 | < 1 | < 1 | < 1 | < 1 | < 1 | < 1
O=C(O)c1c(F)ccc2c1OB(O)[C@@H](NC(=O)[C@H](NC(=O)N1CCN(C3CCN(C(=O)c4ccc(F)c(O)c4)CC3)C1=O)c1cc(F)c(O)c(O)c1Cl)C2 (single isomer, unassigned) [Example 435] | < 10 | < 10 | < 1 | < 1 | < 1 | < 1 | < 1 | < 1 | < 1 | < 1
O=C(O)c1c(F)ccc2c1OB(O)[C@@H](NC(=O)[C@H](NC(=O)N1CCN(C3CCN(C(=O)c4cc(O)cc(F)c4)CC3)C1=O)c1cc(F)c(O)c(O)c1Cl)C2 (single isomer, unassigned) [Example 436] | < 10 | < 10 | < 1 | < 1 | < 1 | < 1 | < 1 | < 1 | < 1 | < 1
O=C(O)c1c(F)ccc2c1OB(O)[C@@H](NC(=O)[C@H](NC(=O)N1CCN(C3CCN(C(=O)c4ccc(F)c(O)c4F)CC3)C1=O)c1cc(F)c(O)c(O)c1Cl)C2 (single isomer, unassigned) [Example 437] | < 10 | < 10 | < 1 | < 1 | < 1 | < 1 | < 1 | < 1 | < 1 | < 1
O=C(O)c1c(F)ccc2c1OB(O)[C@@H](NC(=O)[C@@H](NC(=O)N1CCN(C3CCN(C(=O)c4ccc(O)cc4)CC3)C1=O)c1cc(F)c(O)c(O)c1Cl)C2 (single isomer, unassigned) [Example 462] | < 10 |  | 2 to 4 (≈ 2.64 to 5.28 µM) | < 1 | 8 to 16 (≈ 10.6 to 21.1 µM) | 8 to 16 (≈ 10.6 to 21.1 µM) |  | 32 to 64 (≈ 42.2 to 84.4 µM) | > 128 | > 128
O=C(O)c1c(F)ccc2c1OB(O)[C@@H](NC(=O)C(NC(=O)N1CCN(C3CCN(C(=O)Nc4ccc(F)c(O)c4F)CC3)C1=O)c1cc(F)c(O)c(O)c1Cl)C2 (stereo partly drawn) [Example 452, (3R)-3-(2-(2-chloro-5-fluoro-3,4-dihydroxyphenyl)-2-(3-(1-((2,4-difluoro-3-hydroxyphenyl)carbamoyl)piperidin-4-yl)-2-oxoimidazolidine-1-carboxamido)acetamido)-7-fluoro-2-hydroxy-3,4-dihydro-2H-benzo[e][1,2]oxaborinine-8-carboxylic acid] | 10 to 50 | < 10 | 2 to 4 (≈ 2.47 to 4.95 µM) | < 1 | < 1 | < 1 | < 1 | < 1 |  | 
